One assay concerns the target T1, human VR3 A+B− (Homo sapiens, UniProt Q9HBA0, F526I).
T1 construct: expressed in transfected cells; host or cells: Xenopus laevis oocytes injected with in vitro transcribed cRNA
Put plainly: Two-electrode voltage clamp of Xenopus oocytes injected with VR3 A+B− cRNA, challenged with ligands. It is filed as cell-based. On the set-up: key: NE: no effect. Here is the method:
(§1) Xenopus laevis oocytes were prepared and injected using standard methods previously described and known in the art (Fraser et al., 1993). Ovarian lobes from adult female Xenopus laevis (Nasco, Fort Atkinson, Wis.) were teased apart, rinsed several times in nominally Ca-free saline containing: 82.5 mM NaCl, 2.5 mM KCl, 1 mM MgCl2, 5 mM HEPES, adjusted to pH 7.0 with NaOH (OR-2), and gently shaken in OR-2 containing 0.2% collagenase Type 1 (ICN Biomedicals, Aurora, Ohio) for 2–5 hours. When approximately 50% of the follicular layers were removed, Stage V and VI oocytes were selected and rinsed in media consisting of 75% OR-2 and 25% ND-96. The ND-96 contained: 100 mM NaCl, 2 mM KCl, 1 mM MgCl2, 1.8 mM CaCl2, 5 mM HEPES, 2.5 mM Na pyruvate, gentamicin (50 ug/ml), adjusted to pH 7.0 with NaOH. […] For in vitro transcription, pGEM HE (Liman et al., 1992) containing human VR3 was linearized with NheI and transcribed with T7 RNA polymerase (Promega) in the presence of the cap analog m7G(5′)ppp(5′)G. The synthesized cRNA was precipitated with ammonium acetate and isopropanol, and resuspended in 50 μl nuclease-free water. cRNA was quantified using formaldehyde gels (1% agarose, 1×MOPS , 3% formaldehyde) against 1,2 and 5 μl RNA markers (Gibco BRL, 0.24–9.5 Kb).
(§2) Oocytes were injected with 50 nl of the human VR3 receptor RNA (0.3–5 ng) with or without co-injection of VR1 (2–3 ng). Control oocytes were injected with 50 nl of water. Oocytes were incubated for 1–13 days in ND-96 before analysis for expression of the human VR3. Incubations and collagenase digestion were carried out at room temperature. Injected oocytes were maintained in 48 well cell culture clusters (Costar; Cambridge, Mass.) at 18° C. Whole cell agonist-induced currents were measured 1–14 days after injection with a conventional two-electrode voltage clamp (GeneClamp500, Axon Instruments, Foster City, Calif.) using standard methods previously described and known in the art (Dascal, 1987). The microelectrodes were filled with 3 M KCl, which had resistances of 1 and 2 MΩ. Cells were continuously perfused with ND96 at ˜10 ml/min at room temperature unless indicated. Membrane voltage was clamped at −70 mV unless indicated.
(§3) Oocytes were challenged with a variety of ligands, low pH, and depolarizing as well as hyperpolarizing voltage steps but there were no detectable differences in membrane conductance between human VR3-expressing oocytes and control oocytes [see Table 1]. However, human VR3 injected oocytes had properties that were different from controls in 4 respects. First, injection of VR3 A+B− cRNA caused oocytes to die. […] Second, all three isoforms of VR3 enhanced the heat-induced response (FIG. 10). Third, A+B− co-injection with human VR1 produced a ruthenium red sensitive perfusion-induced current (Iperfusion) (FIG. 11).
(Two-electrode voltage clamp is typically applied to oocytes expressing channels or transporters.)

In another assay the target is T2, VR2 (Rattus norvegicus, UniProt Q9WUD2).
T2 construct: host or cells: oocytes and HEK cells (as reported)
T2 sequence (Q9WUD2 1-761): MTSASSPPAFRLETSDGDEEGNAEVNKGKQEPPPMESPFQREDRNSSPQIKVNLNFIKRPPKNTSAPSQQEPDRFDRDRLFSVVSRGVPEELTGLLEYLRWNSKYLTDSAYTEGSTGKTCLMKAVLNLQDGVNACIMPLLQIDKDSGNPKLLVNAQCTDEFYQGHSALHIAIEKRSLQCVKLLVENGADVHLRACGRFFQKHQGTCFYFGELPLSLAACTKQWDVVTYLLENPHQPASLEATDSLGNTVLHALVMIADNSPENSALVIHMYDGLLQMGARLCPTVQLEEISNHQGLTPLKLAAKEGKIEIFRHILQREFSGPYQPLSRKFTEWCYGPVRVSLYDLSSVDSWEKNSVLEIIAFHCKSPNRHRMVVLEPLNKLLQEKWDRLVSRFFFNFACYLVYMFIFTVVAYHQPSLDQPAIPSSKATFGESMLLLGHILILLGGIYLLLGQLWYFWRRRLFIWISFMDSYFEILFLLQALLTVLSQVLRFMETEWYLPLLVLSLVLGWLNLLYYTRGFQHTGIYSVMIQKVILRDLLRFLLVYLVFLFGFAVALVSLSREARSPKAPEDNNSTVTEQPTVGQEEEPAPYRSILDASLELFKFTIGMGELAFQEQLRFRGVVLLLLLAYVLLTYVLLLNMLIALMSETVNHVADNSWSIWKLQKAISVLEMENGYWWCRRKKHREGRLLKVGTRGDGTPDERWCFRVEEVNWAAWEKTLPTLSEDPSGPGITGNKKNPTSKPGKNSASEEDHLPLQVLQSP
The note with it: noxious temperatures (>53 deg C.), oocytes and HEK cells, cited from earlier work.

Another assay has as its target T3, human VR3 A−B− (Homo sapiens, UniProt Q9HBA0, DEL384-443/F526I).
T3 construct: expressed in transfected cells; host or cells: Xenopus laevis oocytes injected with in vitro transcribed cRNA
Put plainly: Two-electrode voltage clamp of Xenopus oocytes injected with VR3 A−B− cRNA, challenged with ligands. The format is cell-based. As to conditions: VR3 A−B− 1.5 ng injected per oocyte. The protocol: When approximately 50% of the follicular layers were removed, Stage V and VI oocytes were selected and rinsed in media consisting of 75% OR-2 and 25% ND-96. The ND-96 contained: 100 mM NaCl, 2 mM KCl, 1 mM MgCl2, 1.8 mM CaCl2, 5 mM HEPES, 2.5 mM Na pyruvate, gentamicin (50 ug/ml), adjusted to pH 7.0 with NaOH.
as §2, with “Whole cell agonist-induced currents were measured 1–14 days after injection with a conventional two-electrode voltage clamp (GeneClamp500, Axon Instruments, Foster City, Calif.) using standard methods previously described and known in the art (Dascal, 1987).” left out

A further assay addresses T4, human VR3 A+B+ (Homo sapiens, UniProt Q9HBA0).
T4 construct: expressed in transfected cells; host or cells: Xenopus laevis oocytes injected with in vitro transcribed cRNA
Put plainly: Two-electrode voltage clamp of Xenopus oocytes injected with VR3 A+B+ cRNA, challenged with ligands. It is filed as cell-based. As to conditions: VR3 A+B+ 5 ng injected per oocyte. On the set-up: key: NE: no effect. Here is the method: as §1, §2, §3

The target in a further assay is capsaicin binding site (Rattus norvegicus, UniProt O35433). As to conditions: cited from earlier work.
Assay [1] deals with T5, human VR1 together with human VR3 A+B− (Homo sapiens, UniProt Q8NER1).
T5 construct: expressed in transfected cells; host or cells: Xenopus laevis oocytes co-injected with VR1 and VR3 A+B− cRNA (2.9 ng each)
Briefly: Capsaicin induced currents in oocytes expressing human VR1 with human VR3 A+B−. It is filed as cell-based. The note with it: 1 uM capsaicin; VR1 and VR3 A+B− cRNA at equal ratios (2.9 ng each); holding voltage +50 mV. Here is the method:
as §2, with “Whole cell agonist-induced currents were measured 1–14 days after injection with a conventional two-electrode voltage clamp (GeneClamp500, Axon Instruments, Foster City, Calif.) using standard methods previously described and known in the art (Dascal, 1987).” left out

The mark [2] stands for this setting: 100 uM, VR3 A+B− 3.25–4 ng injected per oocyte.
[3] abbreviates: 10 uM, VR3 A+B− 3.25–4 ng injected per oocyte (also 0.4 ng).
Setting [4] is: 1 uM, VR3 A+B− 3.25–4 ng injected per oocyte (also 0.4 ng).

Here are results for 12 compounds from US7186803B2, “Human vanilloid receptor VR3 protein” (Ortho-McNeil Pharmaceutical, Inc., priority 2000, dated 2007).

“Also recorded” adds a separate entry of the source.

T1 sequence (Q9HBA0 whole entry F526I): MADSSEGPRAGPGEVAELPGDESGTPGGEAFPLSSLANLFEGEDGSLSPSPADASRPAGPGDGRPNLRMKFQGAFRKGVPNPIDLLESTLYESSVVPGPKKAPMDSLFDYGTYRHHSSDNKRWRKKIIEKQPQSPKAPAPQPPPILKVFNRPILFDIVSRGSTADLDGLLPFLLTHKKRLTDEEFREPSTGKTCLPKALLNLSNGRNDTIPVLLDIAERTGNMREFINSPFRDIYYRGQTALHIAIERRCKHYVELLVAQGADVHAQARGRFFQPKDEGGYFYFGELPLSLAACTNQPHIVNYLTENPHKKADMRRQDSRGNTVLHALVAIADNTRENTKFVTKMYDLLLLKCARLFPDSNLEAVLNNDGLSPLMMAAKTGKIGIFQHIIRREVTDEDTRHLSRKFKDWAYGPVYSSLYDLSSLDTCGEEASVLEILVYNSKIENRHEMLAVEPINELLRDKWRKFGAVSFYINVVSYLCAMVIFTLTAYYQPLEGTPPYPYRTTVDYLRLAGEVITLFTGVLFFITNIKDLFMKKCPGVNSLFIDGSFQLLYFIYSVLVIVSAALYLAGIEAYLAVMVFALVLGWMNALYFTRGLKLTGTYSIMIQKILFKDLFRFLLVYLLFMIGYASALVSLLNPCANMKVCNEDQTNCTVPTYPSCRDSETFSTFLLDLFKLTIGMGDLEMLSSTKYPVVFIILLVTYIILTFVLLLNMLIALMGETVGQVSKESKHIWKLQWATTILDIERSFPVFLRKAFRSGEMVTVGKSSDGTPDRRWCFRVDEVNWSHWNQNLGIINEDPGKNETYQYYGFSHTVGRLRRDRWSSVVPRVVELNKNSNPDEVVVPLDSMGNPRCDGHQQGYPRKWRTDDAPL
T3 sequence (Q9HBA0 with tags, fused parts or gaps DEL384-443/F526I): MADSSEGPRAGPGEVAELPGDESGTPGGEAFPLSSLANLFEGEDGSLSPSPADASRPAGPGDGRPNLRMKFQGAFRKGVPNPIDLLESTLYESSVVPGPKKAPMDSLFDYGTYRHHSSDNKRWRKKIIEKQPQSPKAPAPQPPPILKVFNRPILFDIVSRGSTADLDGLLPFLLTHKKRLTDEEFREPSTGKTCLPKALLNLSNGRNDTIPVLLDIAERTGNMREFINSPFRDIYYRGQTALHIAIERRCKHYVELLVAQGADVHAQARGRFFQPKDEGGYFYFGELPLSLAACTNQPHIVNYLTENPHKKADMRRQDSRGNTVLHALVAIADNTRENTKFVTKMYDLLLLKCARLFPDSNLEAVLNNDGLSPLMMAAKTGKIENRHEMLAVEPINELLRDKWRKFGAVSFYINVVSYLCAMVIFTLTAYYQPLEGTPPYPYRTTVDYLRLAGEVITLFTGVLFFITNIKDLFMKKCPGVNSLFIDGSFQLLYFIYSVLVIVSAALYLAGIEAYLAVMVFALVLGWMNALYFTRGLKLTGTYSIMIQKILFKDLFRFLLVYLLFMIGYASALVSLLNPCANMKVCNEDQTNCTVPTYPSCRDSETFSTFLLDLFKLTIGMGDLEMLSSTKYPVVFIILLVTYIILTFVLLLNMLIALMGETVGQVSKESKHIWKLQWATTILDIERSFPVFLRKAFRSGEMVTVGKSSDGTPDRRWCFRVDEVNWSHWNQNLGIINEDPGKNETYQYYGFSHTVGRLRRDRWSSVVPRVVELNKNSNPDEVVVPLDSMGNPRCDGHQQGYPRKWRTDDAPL
T4 sequence (Q9HBA0 with tags, fused parts or gaps): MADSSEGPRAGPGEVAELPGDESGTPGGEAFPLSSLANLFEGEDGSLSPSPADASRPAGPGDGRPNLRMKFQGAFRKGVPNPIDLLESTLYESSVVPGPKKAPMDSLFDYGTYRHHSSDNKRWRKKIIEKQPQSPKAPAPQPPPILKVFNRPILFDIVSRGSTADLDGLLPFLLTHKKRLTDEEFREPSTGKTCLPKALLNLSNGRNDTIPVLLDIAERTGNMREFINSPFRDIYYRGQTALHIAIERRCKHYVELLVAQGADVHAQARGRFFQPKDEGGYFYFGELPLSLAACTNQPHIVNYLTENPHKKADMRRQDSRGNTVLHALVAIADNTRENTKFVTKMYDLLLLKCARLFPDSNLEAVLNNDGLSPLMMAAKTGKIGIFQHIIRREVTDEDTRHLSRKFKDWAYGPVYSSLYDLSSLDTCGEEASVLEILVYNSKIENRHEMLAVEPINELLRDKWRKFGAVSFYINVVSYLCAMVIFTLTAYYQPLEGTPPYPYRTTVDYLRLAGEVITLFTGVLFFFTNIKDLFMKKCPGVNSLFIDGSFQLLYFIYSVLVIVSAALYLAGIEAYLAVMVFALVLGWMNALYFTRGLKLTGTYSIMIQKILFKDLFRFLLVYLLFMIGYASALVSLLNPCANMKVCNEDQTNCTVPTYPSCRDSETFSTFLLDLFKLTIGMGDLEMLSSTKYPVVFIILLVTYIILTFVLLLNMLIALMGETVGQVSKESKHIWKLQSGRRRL
T5 sequence (Q8NER1 whole entry): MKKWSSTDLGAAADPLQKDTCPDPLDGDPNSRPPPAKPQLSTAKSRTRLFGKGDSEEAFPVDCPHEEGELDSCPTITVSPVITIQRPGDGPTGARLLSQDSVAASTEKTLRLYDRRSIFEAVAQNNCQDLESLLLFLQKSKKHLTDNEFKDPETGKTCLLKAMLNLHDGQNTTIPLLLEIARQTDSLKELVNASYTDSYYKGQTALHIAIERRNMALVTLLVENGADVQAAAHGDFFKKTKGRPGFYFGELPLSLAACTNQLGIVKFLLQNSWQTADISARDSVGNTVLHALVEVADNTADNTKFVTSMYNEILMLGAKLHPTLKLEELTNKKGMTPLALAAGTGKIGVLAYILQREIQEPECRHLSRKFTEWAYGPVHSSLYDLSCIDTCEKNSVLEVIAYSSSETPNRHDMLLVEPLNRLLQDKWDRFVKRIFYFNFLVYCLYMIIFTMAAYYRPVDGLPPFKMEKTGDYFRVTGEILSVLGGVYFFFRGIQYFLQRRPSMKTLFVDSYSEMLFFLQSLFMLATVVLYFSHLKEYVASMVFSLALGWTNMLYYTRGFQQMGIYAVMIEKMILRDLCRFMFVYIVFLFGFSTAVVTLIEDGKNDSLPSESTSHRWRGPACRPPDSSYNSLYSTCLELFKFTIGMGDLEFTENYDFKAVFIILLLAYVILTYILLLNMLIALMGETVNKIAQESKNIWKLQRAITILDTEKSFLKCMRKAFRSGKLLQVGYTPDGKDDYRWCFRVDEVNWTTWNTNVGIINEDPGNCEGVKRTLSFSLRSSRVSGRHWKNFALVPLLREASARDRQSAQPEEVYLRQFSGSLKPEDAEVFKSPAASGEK
Chain of capsaicin binding site (O35433 whole entry): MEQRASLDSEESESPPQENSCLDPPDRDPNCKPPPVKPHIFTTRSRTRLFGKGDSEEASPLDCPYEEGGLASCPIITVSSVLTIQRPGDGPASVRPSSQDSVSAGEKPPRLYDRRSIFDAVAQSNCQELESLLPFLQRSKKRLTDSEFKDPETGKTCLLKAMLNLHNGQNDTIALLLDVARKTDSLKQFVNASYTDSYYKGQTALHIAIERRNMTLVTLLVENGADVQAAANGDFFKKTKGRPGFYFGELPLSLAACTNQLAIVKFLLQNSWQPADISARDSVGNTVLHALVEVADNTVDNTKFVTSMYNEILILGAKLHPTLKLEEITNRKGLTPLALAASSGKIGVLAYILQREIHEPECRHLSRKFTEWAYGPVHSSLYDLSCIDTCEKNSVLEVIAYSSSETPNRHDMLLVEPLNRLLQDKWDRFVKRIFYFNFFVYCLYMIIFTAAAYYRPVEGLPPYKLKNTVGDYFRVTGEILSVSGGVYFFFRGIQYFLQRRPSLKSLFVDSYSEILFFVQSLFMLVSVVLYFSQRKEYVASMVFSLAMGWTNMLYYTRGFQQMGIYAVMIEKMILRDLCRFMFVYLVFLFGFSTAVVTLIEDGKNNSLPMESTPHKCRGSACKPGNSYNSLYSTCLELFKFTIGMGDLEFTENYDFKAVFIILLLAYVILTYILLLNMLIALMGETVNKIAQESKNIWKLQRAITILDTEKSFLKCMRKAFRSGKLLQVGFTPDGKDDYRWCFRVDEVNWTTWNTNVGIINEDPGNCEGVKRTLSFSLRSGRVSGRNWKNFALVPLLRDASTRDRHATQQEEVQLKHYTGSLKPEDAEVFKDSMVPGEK

`NCCc1ccccc1` [β-phenylethylamine]: on human VR3 A+B− (setting [2]), the “Effect of stimulus on membrane conductance vs control oocytes” value (from here on “Effect of stimulus … vs control oocytes”) was “NE: n = 2”.

With `Oc1cc2c(cc1O)CN(C(=S)NCCc1ccc(Cl)cc1)CCC2` [CPZ, capsazepine], the “Sensitivity of the VR2 heat response to CPZ” value at VR2 is “not sensitive”.

As to `CCCCC/C=C\C/C=C\C/C=C\C/C=C\CCCC(=O)NCCO` [Anandamide], the “Effect of stimulus … vs control oocytes” value on human VR3 A+B− (1.15 uM, VR3 A+B− 0.4 ng injected) is listed as “NE: n = 3 (0.4 ng”; at human VR3 A−B− (1.15 uM), “NE: n = 1”.

Take `CCCCC[C@H](O)CC(=O)CCc1ccc(O)c(OC)c1` [Gingerol]: the “Effect of stimulus … vs control oocytes” value at human VR3 A+B+ (10 uM) is recorded as “NE: n = 3”; at human VR3 A+B− (setting [3]), “NE: n = 3 (n = 1 0.4 ng)”; on human VR3 A−B− (10 uM) it was “NE: n = 3”.

For the compound `C=C(C)[C@]12C[C@@H](C)[C@@]34O[C@](Cc5ccccc5)(O[C@@H]1[C@@H]3C=C(COC(=O)Cc1ccc(O)c(OC)c1)C[C@]1(O)C(=O)C(C)=C[C@@H]41)O2` [Resiniferatoxin, resiniferatoxin], the “Effect of stimulus … vs control oocytes” value at human VR3 A+B+ (1 uM) is “NE: n = 3”; on human VR3 A+B− (setting [4]) it was “NE: n = 3 (n = 1 0.4 ng)”; at human VR3 A−B− (1 uM), “NE: n = 3”. Also, on capsaicin binding site, the “Binding affinity at the capsaicin binding site” value is reported as “nanomolar affinity”.

On to `C=CCc1ccc(O)c(OC)c1` [Eugenol], for which the “Effect of stimulus … vs control oocytes” value on human VR3 A+B+ (10 uM) is “NE: n = 3”; on human VR3 A+B− (setting [3]), “NE: n = 3 (n = 3 0.4 ng)”; on human VR3 A−B− (10 uM), “NE: n = 3”.

Regarding `CCCCCCCC/C=C\CCCCCCCC(=O)NCc1ccc(O)c(OC)c1` [Olvanil], the results for the “Effect of stimulus … vs control oocytes” value at human VR3 A+B+ (10 uM), at human VR3 A+B− (setting [3]) and on human VR3 A−B− (10 uM) were “NE: n = 3”, “NE: n = 3 (n = 1 0.4 ng)” and “NE: n = 3”, respectively.

As for `N.N.N.N.N.N.N.N.N.N.N.N.N.N.[Cl-].[Cl-].[Cl-].[Cl-].[Cl-].[Cl-].[O-2].[O-2].[Ru+3].[Ru+3].[Ru+4]` [ruthenium red], the “Block of the VR2 heat response” value at VR2 (10 μM ruthenium red) was “nearly completely blocked”.

As to `CCCCC/C=C\C/C=C\C/C=C\C/C=C\CCCC(=O)O` [Arachadonic acid], the “Effect of stimulus … vs control oocytes” value at human VR3 A−B− (10 uM) is “NE: n = 3”.

Regarding `COc1ccccc1O` [Guiaicol], the “Effect of stimulus … vs control oocytes” value on human VR3 A+B+ (10 uM) is listed as “NE: n = 3”; at human VR3 A+B− (setting [3]), “NE: n = 3 (n = 1 0.4 ng)”; at human VR3 A−B− (10 uM), “NE: n = 3”.

As to `COc1cc(CNC(=O)CCCCC=CC(C)C)ccc1O` [Capsaicin, 8-methyl-N-vanillyl-6-nonenamide], the “Effect of stimulus … vs control oocytes” value on human VR3 A+B+ (1 uM) is reported as “NE: n = 3”; at human VR3 A+B− (setting [4]) it was “NE: n = 3 (n = 3 0.4 ng)”; on human VR3 A−B− (1 uM), “NE: n = 3”. The “Response to capsaicin when VR1 is co-expressed with VR3 A+B−, compared with VR1 alone” value in assay [1] is reported as “altered the responsiveness; also recorded: diminished”.

In the case of `O=C(O)CCCO` [γ-hydroxybutyrate], the “Effect of stimulus … vs control oocytes” value at human VR3 A+B− (setting [2]) was “NE: n = 2”.
